Read-outs that look alike come from different tables or passages of the source. Each block holds one molecule with its values, some of them ahead of it. Square brackets hold non-standard residues; d marks the D form. Peptide text beside a SMILES is read from it. * marks the point of attachment. Sta = CC(C)C[C@H](N)[C@@H](O)CC(=O)O; Isovaleryl = CC(C)CC(=O)*
Legend:
[1] = molecular target: T1, neprosin (mature catalytic domain, recombinant) (Nepenthes ventricosa x Nepenthes alata, UniProt C0HLV2); assay: fluorogenic peptide cleavage (FS6-QPQL), inhibition curve; type: biochemical
T1 construct: Mature catalytic domain S129-Q380 from autolysis of pro-neprosin at P128-S129 (pro-domain R25-P128 removed); C-terminal Ala-Ile-Ala plus His6 tag kept; expressed in human Expi293F cells; glycosylated at N145 and N152; monomer

[2] = molecular target: T2, mature neprosin (catalytic domain, S129-Q380) with C-terminal His6 tag (Nepenthes x ventrata, UniProt C0HLV2 129-380, N-linked glycans at N145 and N152); assay: crystal structure; orthorhombic crystals of pro-neprosin (native and Lu-Xo4 derivative), polypeptide cleaved at P128-S129; protein in 20 mM Tris-HCl pH 7.5, 150 mM NaCl; reservoir 0.1 M sodium acetate pH 4.0, 22% PEG 6000, 10% isopropanol, 20 °C; conditions: both partners purified
T2 construct: neprosin from Nepenthes x ventrata, UniProt C0HLV2, catalytic domain S129-Q380 released by cleavage at P128-S129; C-terminal purification tag, numbered A401-I402-A403 + H404-H409; written as a part because it lies in the active-site cleft of a symmetry mate; also called neprosin CD; mature enzyme; source: human Expi293F cells; pro-neprosin purified (Ni-NTA), autolysis at pH 2.5, then SEC; in the …
T2 sequence: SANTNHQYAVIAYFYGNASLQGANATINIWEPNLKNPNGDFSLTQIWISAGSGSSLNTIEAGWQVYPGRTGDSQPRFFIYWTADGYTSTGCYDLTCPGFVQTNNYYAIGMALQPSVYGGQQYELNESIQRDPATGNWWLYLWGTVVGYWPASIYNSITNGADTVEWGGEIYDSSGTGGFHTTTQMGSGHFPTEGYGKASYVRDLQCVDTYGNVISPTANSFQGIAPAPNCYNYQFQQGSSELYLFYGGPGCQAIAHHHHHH

- IC50 [1]: 480 µM
Molecule: O=[N+]([O-])c1ccc(OCC2CO2)cc1 (stereo not drawn) [EPNP, 2-[(4-nitrophenoxy)methyl]oxirane]

- IC50 ([1]; 50 nM neprosin, 10 μM FS6-QPQL, 100 mM glycine pH 3.0, 37 °C, pre-incubated >1 h (pre-incubation stated for the inhibitor screen)): 140 µM
Molecule: CC(C)CC(=O)N[C@H](C(=O)N[C@H](C(=O)N[C@@H](CC(C)C)[C@@H](O)CC(=O)N[C@@H](C)C(=O)N[C@@H](CC(C)C)[C@@H](O)CC(=O)O)C(C)C)C(C)C [pepstatin A] (Isovaleryl-VV[Sta]A[Sta]-OH)

- binding result [2]: binds
B1: neprosin pro-domain (PD, R25-P128) (domain or fragment, Nepenthes x ventrata, UniProt C0HLV2 25-128, looked up)
chain: RSIQARLANKPKGTIKTIKGDDGEVVDCVDIYKQPAFDHPLLKNHTLQMQPSSYASKVGEYNKLEQPWHKNGECPKGSIPIRRQVITGLPVVKKQFPNLKFAPP
notes: neprosin from Nepenthes x ventrata, UniProt C0HLV2, N-terminal pro-domain R25-P128: globular part A29-G112 and linker L113-P128; Defined in the map from A29 onwards; Y77-N86 and N122 onwards are disordered; also called cleaved PD; source: human Expi293F cells; pro-neprosin purified (Ni-NTA, SEC), found cleaved at P128-S129 in the crystals

Source: publication PMC9343461, “Molecular and in vivo studies of a glutamate-class prolyl-endopeptidase for coeliac disease therapy” (Nature Communications, 2022)
